Patent US12060347B2 (BRISTOL-MYERS SQUIBB COMPANY, priority 2016, dated 2024)
Where a name gives a salt, the structure may show the parent alone.

Biological target: T1, human PAR4 (Homo sapiens, UniProt Q96RI0)
T1 construct: expressed in transfected cells; host or cells: HEK293 PAR4 Clone 1.2A (BMS Arctic ID 383940)
T1 sequence (Q96RI0 18-385): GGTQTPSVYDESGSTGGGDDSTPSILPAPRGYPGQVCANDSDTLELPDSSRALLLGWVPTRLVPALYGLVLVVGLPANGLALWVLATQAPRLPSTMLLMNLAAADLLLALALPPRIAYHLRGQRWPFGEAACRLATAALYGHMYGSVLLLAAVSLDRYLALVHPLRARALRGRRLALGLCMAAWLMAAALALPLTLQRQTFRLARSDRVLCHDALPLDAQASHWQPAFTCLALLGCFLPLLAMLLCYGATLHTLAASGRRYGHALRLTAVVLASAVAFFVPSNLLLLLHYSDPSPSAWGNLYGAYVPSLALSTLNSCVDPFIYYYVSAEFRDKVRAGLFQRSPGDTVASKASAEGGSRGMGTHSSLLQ
Assay: PAR4 FLIPR assay: antagonism of agonist-peptide-induced calcium mobilization in PAR4-expressing HEK293 cells
Format: cell-based
Details: H-Ala-Phe(4-F)-[…]NH2-induced intracellular calcium mobilization, 11-point curves

| IC50 [nM] | SMILES |
| --- | --- |
| 2.1 | COCc1cnc2c(-c3nc4c(Cl)c(C)c(OC)cc4s3)cc(C)cc2n1 [Example 298, 4-chloro-6-methoxy-2-(2-(methoxymethyl)-7-methylquinoxalin-5-yl)-5-methylbenzo[d]thiazole] |
| 14 | COc1cc(OC)c2nc(-c3cc(C)cc4nc(OC(F)F)cnc34)sc2c1 [Example 55, 2-(2-(difluoromethoxy)-7-methylquinoxalin-5-yl)-4,6-dimethoxybenzo[d]thiazole] |
| 3.8 | COc1cnc2c(-c3nc4cc(F)c(O[C@@H](C)[C@@H](C)OC(=O)Nc5ccc(C(C)(C)O)nc5)cc4s3)cc(C)cc2n1 [Example 500, (2R,3S)-3-((5-fluoro-2-(2-methoxy-7-methylquinoxalin-5-yl)benzo[d]thiazol-6-yl)oxy)butan-2-yl (6-(2-hydroxypropan-2-yl)pyridin-3-yl)carbamate] |
| 1.2 | COCc1cnc2c(-c3nc4c(C)c(C)c(OCC(=O)OC)cc4s3)cc(C)cc2n1 [Example 296, methyl 2-((2-(2-(methoxymethyl)-7-methylquinoxalin-5-yl)-4,5-dimethylbenzo[d]thiazol-6-yl)oxy)acetate] |
| 1.2 | COc1cnc2c(-c3nc4cc(F)c(OC[C@@H](C)OC(=O)Nc5cnc(OCC(C)(C)O)nc5)cc4s3)cc(C)cc2n1 [Example 576, (R)-1-((5-fluoro-2-(2-methoxy-7-methylquinoxalin-5-yl)benzo[d]thiazol-6-yl)oxy)propan-2-yl (2-(2-hydroxy-2-methylpropoxy)pyrimidin-5-yl)carbamate] |
| 7.8 | COc1cnc2c(-c3nc4cc(F)c(O[C@@H](C)[C@@H](C)OC(=O)Nc5cnc(C)nc5)cc4s3)cc(C)cc2n1 [Example 386, (2R,3S)-3-((5-fluoro-2-(2-methoxy-7-methylquinoxalin-5-yl)benzo[d]thiazol-6-yl)oxy)butan-2-yl (2-methylpyrimidin-5-yl)carbamate] |
| 1.7 | COc1cnc2c(-c3nc4cc(F)c(O[C@@H](C)[C@@H](C)OC(=O)Nc5cnc(CO)nc5)nc4s3)cc(C)cc2n1 [Example 764, (2R,3S)-3-((6-fluoro-2-(2-methoxy-7-methylquinoxalin-5-yl)thiazolo[5,4-b]pyridin-5-yl)oxy)butan-2-yl (2-(hydroxymethyl)pyrimidin-5-yl)carbamate] |
| 3.9 | COc1cnc2c(-c3nc4c(Cl)c(F)c(OCCOC(=O)NCc5cnn(C)c5)cc4s3)cc(C)cc2n1 [Example 399, 2-((4-chloro-5-fluoro-2-(2-methoxy-7-methylquinoxalin-5-yl)benzo[d]thiazol-6-yl)oxy)ethyl ((1-methyl-1H-pyrazol-4-yl)methyl)carbamate] |
| 2.7 | COc1cnc2c(-c3nc4cc(F)c(O[C@@H](C)[C@@H](C)OC(=O)Nc5cncc(F)c5)cc4s3)cc(Cl)cc2c1 [Example 782, (2R,3S)-3-((2-(6-chloro-3-methoxyquinolin-8-yl)-5-fluorobenzo[d]thiazol-6-yl)oxy)butan-2-yl (5-fluoropyridin-3-yl)carbamate] |
| 7.6 | COc1cnc2c(-c3nc4c(Cl)c(F)c(OC[C@@H](C)OC(=O)Nc5ccnc(C(N)=O)c5)cc4s3)cc(C)cc2n1 [Example 427, (R)-1-((4-chloro-5-fluoro-2-(2-methoxy-7-methylquinoxalin-5-yl)benzo[d]thiazol-6-yl)oxy)propan-2-yl (2-carbamoylpyridin-4-yl)carbamate] |
| 0.7 | COc1cnc2c(-c3nc4cc(F)c(O[C@@H](C)[C@@H](C)OC(=O)Nc5cnc(O[C@H](C)CO)nc5)cc4s3)cc(C)cc2n1 [Example 554, (2R,3S)-3-((5-fluoro-2-(2-methoxy-7-methylquinoxalin-5-yl)benzo[d]thiazol-6-yl)oxy)butan-2-yl (2-(((R)-1-hydroxypropan-2-yl)oxy)pyrimidin-5-yl)carbamate] |
| 1.8 | COc1cnc2c(-c3nc4c(Cl)c(F)c(OC[C@@H](C)OC(=O)Nc5ccnc(CO)c5)cc4s3)cc(C)cc2n1 [Example 494, (R)-1-((4-chloro-5-fluoro-2-(2-methoxy-7-methylquinoxalin-5-yl)benzo[d]thiazol-6-yl)oxy)propan-2-yl (2-(hydroxymethyl)pyridin-4-yl)carbamate] |
| 1.5 | COc1cnc2c(-c3cc4cc(OCCOC(=O)Nc5ccnc(C)c5)c(F)cc4o3)cc(C)cc2n1 [Example 123, 2-((6-fluoro-2-(2-methoxy-7-methylquinoxalin-5-yl)benzofuran-5-yl)oxy)ethyl (2-methylpyridin-4-yl)carbamate] |
| 15 | COc1cnc2c(-c3nc4cc(F)c(OC[C@@H](C)OC(=O)Nc5cnc(N(C)C)nc5)cc4s3)cc(C)cc2n1 [Example 597, (R)-1-((5-fluoro-2-(2-methoxy-7-methylquinoxalin-5-yl)benzo[d]thiazol-6-yl)oxy)propan-2-yl (2-(dimethylamino)pyrimidin-5-yl)carbamate] |
| 0.7 | [2H]C([2H])(O)c1c(C)c(OC)cc2sc(-c3cc(C)cc4nc(COC)cnc34)nc12 [Example 325] |
| 2.4 | COc1cnc2c(-c3nc4cc(F)c(O[C@@H](C)[C@@H](C)OC(=O)Nc5ccc(F)nc5)cc4s3)cc(Cl)cc2c1 [Example 789, (2R,3S)-3-((2-(6-chloro-3-methoxyquinolin-8-yl)-5-fluorobenzo[d]thiazol-6-yl)oxy)butan-2-yl (6-fluoropyridin-3-yl)carbamate] |
| 160 | Cc1cc(-c2nc3ccc(OCc4cscn4)cc3s2)c2ncc(OC(F)F)nc2c1 [Example 71, 2-(2-(difluoromethoxy)-7-methylquinoxalin-5-yl)-6-(thiazol-4-ylmethoxy) benzo[d]thiazole] |
| 3 | COc1cnc2c(-c3nc4cc(F)c(O[C@@H](C)[C@@H](C)OC(=O)Nc5ccc(C(=O)N(C)C)nc5)cc4s3)cc(Cl)cc2n1 [Example 834, (2R,3S)-3-((2-(7-chloro-2-methoxyquinoxalin-5-yl)-5-fluorobenzo[d]thiazol-6-yl)oxy)butan-2-yl (6-(dimethylcarbamoyl)pyridin-3-yl)carbamate] |
| 0.7 | CCOc1cnc2c(-c3nc4cc(F)c(O[C@@H](C)[C@@H](C)OC(=O)Nc5ccc(C(=O)NC[C@H](C)O)nc5)cc4s3)cc(C)cc2n1 [Example 531, (2R,3S)-3-((2-(2-ethoxy-7-methylquinoxalin-5-yl)-5-fluorobenzo[d]thiazol-6-yl)oxy)butan-2-yl (6-(((S)-2-hydroxypropyl)carbamoyl)pyridin-3-yl)carbamate, TFA] |
| 0.9 | COc1cnc2c(-c3nc4cc(F)c(OC[C@@H](C)OC(=O)Nc5cncc(F)c5)nc4s3)cc(C)cc2n1 [Example 682, (R)-1-((6-fluoro-2-(2-methoxy-7-methylquinoxalin-5-yl)thiazolo[5,4-b]pyridin-5-yl)oxy) propan-2-yl (5-fluoropyridin-3-yl)carbamate] |
| 1.1 | COCc1cnc2c(-c3nc4c(C)cc(OCCNS(=O)(=O)c5ccccc5F)cc4s3)cc(C)cc2n1 [Example 96, 2-fluoro N-(2-(2-(2-(methoxymethyl)-7-methylquinoxalin-5-yl)-4-methylbenzo[d]thiazol-6-yloxy)ethyl)benzenesulfonamide] |
| 1.6 | COc1cnc2c(-c3nc4cc(F)c(OCCOC(=O)Nc5cccnc5)cc4s3)cc(C)cc2n1 [Example 339, 2-((5-fluoro-2-(2-methoxy-7-methylquinoxalin-5-yl)benzo[d]thiazol-6-yl)oxy)ethyl pyridin-3-ylcarbamate] |
| 36 | COC(=O)NCCOc1cccc2nc(-c3cc(C)cc4nc(OC(F)F)cnc34)sc12 [Example 69, Methyl 2-(2-(2-(difluoromethoxy)-7-methylquinoxalin-5-yl)benzo[d]thiazol-7-yloxy)ethylcarbamate] |
| 2.6 | COc1cnc2c(-c3nc4cc(F)c(OC[C@@H](C)OC(=O)Nc5ccnc(CCO)c5)nc4s3)cc(C)cc2n1 [Example 696, (R)-1-((6-fluoro-2-(2-methoxy-7-methylquinoxalin-5-yl)thiazolo[5,4-b]pyridin-5-yl)oxy) propan-2-yl (2-(2-hydroxyethyl)pyridin-4-yl)carbamate] |
| 4.4 | COc1cnc2c(-c3nc4cc(F)c(O[C@@H](C)[C@@H](C)OC(=O)Nc5ccncc5)cc4s3)cc(Cl)cc2c1 [Example 790, (2R,3S)-3-((2-(6-chloro-3-methoxyquinolin-8-yl)-5-fluorobenzo[d]thiazol-6-yl)oxy)butan-2-yl pyridin-4-ylcarbamate] |
| 8.5 | COC(=O)COc1cc2sc(-c3cc(C)cc4nc(OC)cnc34)nc2c(Cl)c1F [Example 287, methyl 2-((4-chloro-5-fluoro-2-(2-methoxy-7-methylquinoxalin-5-yl)benzo[d]thiazol-6-yl)oxy)acetate] |
| 240 | Cc1cc(-c2nc3ccccc3o2)c2ncc(OC(F)F)nc2c1 [Example 3, 2-(2-(difluoromethoxy)-7-methylquinoxalin-5-yl)benzo[d]oxazole] |
| 12 | COc1cnc2c(-c3nc4cc(F)c(O[C@@H](C)[C@@H](C)OC(=O)Nc5cnc(C(=O)NC[C@H](C)O)nc5)nc4s3)cc(C)cc2n1 [Example 753, (2R,3S)-3-((6-fluoro-2-(2-methoxy-7-methylquinoxalin-5-yl)thiazolo[5,4-b]pyridin-5-yl)oxy)butan-2-yl (2-(((S)-2-hydroxypropyl)carbamoyl)pyrimidin-5-yl)carbamate] |
| 1 | COc1cnc2c(-c3nc4cc(F)c(O[C@@H](C)[C@@H](C)OC(=O)Nc5cnc(C)nc5)cc4s3)cc(CF)cc2c1 [Example 654, (2R,3S)-3-((5-fluoro-2-(6-(fluoromethyl)-3-methoxyquinolin-8-yl)benzo[d]thiazol-6-yl)oxy)butan-2-yl (2-methylpyrimidin-5-yl)carbamate] |
